The record followed here is patent publication US20090124688A1, “Prostaglandin reductase inhibitors” (priority 2006, published 2009).

Data set [1] has as its target T1, PGR-2 (Mus musculus, UniProt Q8VDQ1).
T1 construct: GST (N); made in house; host or cells: E. coli
In words: PGR-2 enzymatic activity: substrate specificity and kinetics. In kind it is biochemical. To be noted: for reduction catalyzed by PGR-2 (kinetics studies): recombinant PGR-2, NADPH cofactor; for specific activity with PGR-2 (substrate specificity): 15-keto PGE2 replaced with the substrate, 0.5 mM NADPH, 2 hours at 37° C. As for the experimental part:
Mouse PGR-2 was recombinantly expressed in E. coli as a GST fusion protein following standard procedures. The recombinant PGR-2 protein thus obtained was used to determine substrate specificity and enzymatic kinetics.
Substrate specificity of PGR-2 was determined using the just-described procedure, except that 15-keto PGE2 was replaced with each of six prostaglandin substrates, each of three downstream metabolites, or leukotriene B4. The substrates were purchased from Cayman Chemical Company (Michigan, USA).
Unlike PGR/LTB4DH, PGR-2 used NADPH as a cofactor much more efficiently than NADH.
The substrate was 15-keto prostaglandin E1, 15-keto prostaglandin E2, 15-keto prostaglandin F1α, 15-keto prostaglandin F2α, 15-keto-fluprostenol isopropyl ester, or 15-keto-fluprostenol, which were purchased from Cayman Chemical Company (Michigan, USA). […] Absorbance at 490 nm was measured by an ELISA plate reader.

Data set [2] relates to PPARs. In words: Reporter gene assay of endogenous PPARs activity in 3T3-L1 cells. In kind it is cell-based, mouse. Conditions: 3T3-L1 cells induced to differentiate for two days, transfected with reporter gene. As for the experimental part:
(§1) The effect of prostaglandin on PPAR-γ activity in adipocytes was investigated. After treatment with a medium that induces cell differentiation, 3T3-L1 cells were treated from day 2 to 4 during adipogenesis with 14 μM 15-keto PGE2, 13,14-dihydro-15-keto PGE2, 15-keto PGF2α, 13,14-dihydro-15-keto PGF2α, or 4.5 μM of BRL49653 (a PPAR-γ agonist). See Forman et al., Cell (1995) 83:803-812. At day 6, aggregates of lipid droplets were stained with oil-red O for observation. […] After being induced to differentiate for two days, the 3T3-L1 cells were transfected with a reporter gene.
On the technique in general: In a reporter assay the amount or activity of a reporter protein is the signal.

Data set [3] deals with PPAR-γ target genes. Briefly: Protein expression of adipogenesis-specific PPAR-γ target genes in 3T3-L1 cells. Format: cell-based, mouse. The text has this: Also examined was the ability of 15-keto PGE2 to induce protein expression of adipogenesis-specific, PPAR-γ target genes, i.e., IRS-1and -2.
Data set [4] addresses T2, PPAR-γ (Homo sapiens, UniProt P37231).
T2 construct: expressed in transfected cells; host or cells: 3T3-L1
T2 sequence (P37231 238-503 limits assumed): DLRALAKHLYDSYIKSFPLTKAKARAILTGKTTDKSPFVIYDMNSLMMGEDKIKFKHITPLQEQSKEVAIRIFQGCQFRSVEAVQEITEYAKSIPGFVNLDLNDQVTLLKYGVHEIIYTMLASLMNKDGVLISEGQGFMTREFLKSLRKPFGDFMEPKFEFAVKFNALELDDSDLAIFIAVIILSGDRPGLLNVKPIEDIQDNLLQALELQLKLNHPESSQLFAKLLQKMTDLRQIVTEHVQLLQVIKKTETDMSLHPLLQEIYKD
In words: Luciferase reporter with PPAR ligand-binding domain fused to GAL4 DNA-binding domain in 3T3-L1 cells. Format: cell-based. The text has this:
(§2) A luciferase reporter gene was transfected to 3T3-L1 cells together with the ligand-binding domain of […], PPAR-γ or […] fused to a yeast GAL4 DNA-binding domain.

Data set [5] deals with T3, PPAR-α (Homo sapiens, UniProt Q07869).
T3 construct: expressed in transfected cells; host or cells: 3T3-L1
T3 sequence (Q07869 239-466 limits assumed): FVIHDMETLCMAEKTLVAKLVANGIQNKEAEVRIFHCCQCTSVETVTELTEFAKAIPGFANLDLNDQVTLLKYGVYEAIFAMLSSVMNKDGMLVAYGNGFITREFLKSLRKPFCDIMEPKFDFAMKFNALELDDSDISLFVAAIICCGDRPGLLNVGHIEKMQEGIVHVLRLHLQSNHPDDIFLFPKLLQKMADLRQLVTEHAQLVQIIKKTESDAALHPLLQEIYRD
Described as above. Format: cell-based. Conditions: relative to PPAR-γ activation.
Text: as §2

Data set [6] concerns 3T3-L1 cells. In words: Adipogenesis in 3T3-L1 cells, oil-red O staining of lipid droplets. To be noted: 14 μM, day 2 to 4 during adipogenesis; stained at day 6. In kind it is cell-based, mouse. As to the method: as §1
In data set [7] the test system is Female diabetic mice (C57BLKS/J-m+/+Lep^db). Briefly: Blood glucose levels in diabetic mice. In kind it is in vivo, mouse. Conditions: 25 mg/kg intraperitoneally twice a day for two days; fasted 48th through 52nd hour. As for the experimental part:
The in vivo effect compound 45 on glucose metabolism was also investigated. Female diabetic mice were obtained from the Jackson Laboratory (C57BLKS/J-m+/+Lep^db, 12 to 13 weeks old). These mice were characterized as insulin-resistant and hyperglycemic. 25 mg/kg of 2,2′-dihydroxychalcone (n=8) or placebo (n=4, final concentration against body fluid: 0.5% DMSO/1% ethanol) was injected intraperitoneally to the mice twice a day for two days. The mice were then fasted from the 48th hour through 52nd hour after the first injection. Blood samples were collected from the retro-orbital sinus before the first injection, and every two hours after two days of treatment. Blood glucose levels were measured by an electrode-type blood glucose meter (HORIBA, AntSense II, Japan).

The test system of data set [8] is PPAR-γ. In words: Transcriptional activation of PPAR-γ after siRNA transfection. Format: cell-based. Conditions: transfection of siRNA duplexes. The text has this: (§3) An RNA interference (RNAi) approach was used to silence PGR-2 expression. Two small interfering RNA (siRNA) duplexes, i.e., […] (SEQ ID NO:7) and […] (SEQ ID NO:8), were annealed first and then introduced into 3T3-L1 fibroblasts or differentiating pre-adipocytes by transfection using oligofectamine (Invitrogen). Transfection of the siRNA duplexes reduced PGR-2 expression. In another experiment, transfection of the siRNA duplexes increased transcriptional activation of PPAR-γ. Thus, one can modulate PPAR-γ activity via silencing PGR-2 expression by RNA interference.

Data set [9] concerns PGR-2. Briefly: RNA interference silencing of PGR-2 expression in 3T3-L1 cells. Format: cell-based, mouse. To be noted: transfection into 3T3-L1 fibroblasts or differentiating pre-adipocytes.
Text: as §3

Data set [10] concerns 3T3-L1 cells. In words: Glucose transport assay, uptake of 2-deoxy-D-[3H]glucose in differentiated 3T3-L1 cells. Format: cell-based, mouse. As for the experimental part:
3T3-L1cells were induced to differentiate in the same manner as described above. A glucose transport assay was performed by measuring uptake of 2-deoxy-D-[3H]glucose as described by Fingar et al. See Fingar et al., Endocrinology 134:728-735. 1.67 μM of the compound or 45 nM of a PPARs agonist, i.e., Avandia, was added to the cells. 10 μM cytochalasin-B was used to measure background glucose uptake levels.

T1 sequence (Q8VDQ1 whole entry): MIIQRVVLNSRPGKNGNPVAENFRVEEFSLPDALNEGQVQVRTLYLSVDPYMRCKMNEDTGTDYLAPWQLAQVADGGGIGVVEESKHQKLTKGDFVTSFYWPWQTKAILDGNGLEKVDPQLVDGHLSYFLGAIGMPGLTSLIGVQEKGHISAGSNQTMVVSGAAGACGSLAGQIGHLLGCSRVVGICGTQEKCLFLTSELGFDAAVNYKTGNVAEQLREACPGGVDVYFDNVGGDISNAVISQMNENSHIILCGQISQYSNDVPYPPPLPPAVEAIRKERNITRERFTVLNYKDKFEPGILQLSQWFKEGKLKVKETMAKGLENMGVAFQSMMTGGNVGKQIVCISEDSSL

`O=C(O)CCC/C=C\C[C@@H]1[C@@H](/C=C/C(=O)COc2cccc(C(F)(F)F)c2)[C@H](O)C[C@@H]1O` [15-keto fluprostenol]: the “reduction catalyzed by PGR-2 (kinetics studies)” value (“reduction catalyzed” for short) in [1] is reported as “catalyzed reduction”.
`CC(C)OC(=O)CCC/C=C\C[C@@H]1[C@@H](/C=C/C(=O)COc2cccc(C(F)(F)F)c2)[C@H](O)C[C@@H]1O` [15-keto fluprostenol isopropyl ester]: the “reduction catalyzed” value in [1] is on record as “catalyzed reduction”.
In the case of `CCCCCC(=O)/C=C/[C@H]1[C@H](O)CC(=O)[C@@H]1C/C=C\CCCC(=O)O` [15-keto PGE2, 15-keto prostaglandin E2], the “endogenous PPARs activity (reporter gene)” value (“endogenous PPARs activity” for short) in data set [2] is “enhanced endogenous PPARs activity significantly”. Also, the “reduction catalyzed” value in data set [1] is on record as “catalyzed reduction”. Further, the “amount of IRS-1 protein” value in data set [3] is given as “did not increase”. In addition, the “PPAR-γ1 and PPAR-γ2 expression” value in data set [3] (added with MIX, insulin and dexamethasone) is “significantly enhanced”. Moreover, in data set [3] (even in the absence of MIX), the “expression of aP2, an adipocyte-specific marker” value was “strongly induced”. The IRS-2 expression entry in [3] (in the presence of insulin and dexamethasone) is recorded as “enhanced the expression to a level similar to MIX”. Also, in data set [4], the “activation of PPAR-γ (GAL4 fusion, luciferase reporter)” value was “activated”. The “activation of PPAR-α (GAL4 fusion, luciferase reporter)” value in data set [5] is listed as “to a lesser degree”. Further, the “adipogenesis (lipid droplets stained with oil-red O)” value in [6] was “effectively enhanced adipogenesis at a level similar to BRL49653”.
On to `CCCCCC(=O)CC[C@@H]1[C@@H](C/C=C\CCCC(=O)O)[C@@H](O)C[C@H]1O` [13,14-dihydro-15-keto PGF2α], for which the “endogenous PPARs activity” value in [2] is given as “failed to increase PPARs activity”.
As for `O=C(/C=C/c1ccccc1O)c1ccccc1O` [Compound 45, 2,2′-dihydroxychalcone], in data set [7], the “blood glucose levels compared to placebo controls” value was “significant reduction”.
On to `CCCCCC(=O)CC[C@H]1[C@H](O)CC(=O)[C@@H]1C/C=C\CCCC(=O)O` [13,14-dihydro-15-keto PGE2], for which, in data set [2], the “endogenous PPARs activity” value is on record as “failed to increase PPARs activity”. For the same compound, the “specific activity with PGR-2 (substrate specificity)” value (“specific activity” for short) in [1] is “no specific activity was detected”.
On to `CCCCCC(=O)/C=C/[C@H]1[C@H](O)CC(=O)[C@@H]1CCCCCCC(=O)O` [15-keto PGE1, 15-keto prostaglandin E1], for which, in [1], the “specific activity” value is “reacted specifically” and the “reduction catalyzed” value is given as “catalyzed reduction”.
With `CCCCCC(=O)/C=C/[C@@H]1[C@@H](C/C=C\CCCC(=O)O)[C@@H](O)C[C@H]1O` [15-keto PGF2α, 15-keto prostaglandin F2α], the “endogenous PPARs activity” value in [2] is given as “enhanced endogenous PPARs activity significantly”. In addition, in [1], the “specific activity” value is “reacted specifically” and the “reduction catalyzed” value is given as “catalyzed reduction”. In addition, the “activation of PPAR-γ (GAL4 fusion, luciferase reporter)” value in data set [4] is listed as “activated”. Also, the “activation of PPAR-α (GAL4 fusion, luciferase reporter)” value in [5] is listed as “to a lesser degree”.
Turning to “SEQ ID NO:8: small interfering RNA (siRNA) duplex guucaagugaggacucuuu to silence PGR-2 expression (GUUCAAGUGAGGACUCUUU; chemistry not given here)”, the “transcriptional activation of PPAR-γ” value in [8] was “increased”. Moreover, in data set [9], the PGR-2 expression entry was “reduced”.
`CCCCC[C@H](O)/C=C/[C@@H]1[C@@H](CC(=O)CCCCC(=O)O)[C@@H](O)C[C@H]1O` [6-keto PGF1α]: the “specific activity” value in data set [1] is “no specific activity was detected”.
Regarding `CCCCCC(=O)/C=C/[C@@H]1[C@@H](CCCCCCC(=O)O)[C@@H](O)C[C@H]1O` [15-keto PGF1α, 15-keto prostaglandin F1α], in data set [1], the “specific activity” value is on record as “reacted specifically” and the “reduction catalyzed” value was “catalyzed reduction”.
For the compound `CCCCC/C=C\C[C@@H](O)/C=C/C=C/C=C\[C@@H](O)CCCC(=O)O` [leukotriene B4], in data set [1], the “specific activity” value is given as “no specific activity was detected”.
On to “SEQ ID NO:7: small interfering RNA (siRNA) duplex gaguucaguuuaccggaug to silence PGR-2 expression (GAGUUCAGUUUACCGGAUG; chemistry not given here)”, for which the “transcriptional activation of PPAR-γ” value in [8] is listed as “increased”. Further, the PGR-2 expression result in [9] was “reduced”.
Regarding `O=C(c1cc2cc(Cl)ccc2oc1=O)c1cc2cc(Cl)ccc2oc1=O` [Compound 27], the “ability to enhance glucose uptake compared with Avandia” value in data set [10] (1.67 μM compound vs 45 nM Avandia) is reported as “comparable to that of Avandia”. Besides, the “increase of glucose uptake” value in data set [10] (differentiated 3T3-L1 cells, 1.67 μM compound, 100 nM insulin to stimulate uptake) was found to be 30 folds.
